# Reference: ChEMBL document CHEMBL1821663, “Synthesis and biological evaluation of glycogen synthase kinase 3 (GSK-3) inhibitors: an fast and atom efficient access to 1-aryl-3-benzylureas” (Bioorg Med Chem Lett, 2011)
# What was measured:
# Danio rerio [1] = species on record: Danio rerio; assay: Toxicity in 8 to 15 -somite stage zebrafish embryo assessed as swimming movements in circles at 100 uM after 18 to 25 hrs; type: organism-based; details: in vivo
# [2] = target: Glycogen synthase kinase-3 alpha (Homo sapiens, UniProt P49840); assay: Inhibition of human GSK3alpha activity using Ser/Thr 11 peptide as substrate by FRET assay
# Danio rerio [3] = species on record: Danio rerio; assay: Toxicity in 8 to 15 -somite stage zebrafish embryo after 18 to 25 hrs; type: organism-based; details: in vivo
# [4] = target: T1, Glycogen synthase kinase-3 beta (Homo sapiens, UniProt P49841); assay: Inhibition of GSK3-beta assessed as [32P]gamma-ATP incorporation into substrate at 10 uM after 15 mins by gamma counting; values are per cent of control
# Target sequence in this assay (P49841 whole entry, looked up): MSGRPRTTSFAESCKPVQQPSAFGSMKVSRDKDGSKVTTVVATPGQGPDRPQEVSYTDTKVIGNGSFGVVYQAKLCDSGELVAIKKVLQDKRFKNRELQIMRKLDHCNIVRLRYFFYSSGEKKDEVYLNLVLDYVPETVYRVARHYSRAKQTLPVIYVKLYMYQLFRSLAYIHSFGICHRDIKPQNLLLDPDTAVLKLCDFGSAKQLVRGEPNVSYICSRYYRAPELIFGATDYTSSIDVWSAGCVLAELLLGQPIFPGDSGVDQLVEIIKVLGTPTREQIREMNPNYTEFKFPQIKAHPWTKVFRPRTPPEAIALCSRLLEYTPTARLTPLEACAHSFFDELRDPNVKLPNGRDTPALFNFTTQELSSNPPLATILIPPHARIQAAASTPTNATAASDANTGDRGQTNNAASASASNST
# [5] = target: T1, Glycogen synthase kinase-3 beta; assay: Inhibition of GSK3-beta assessed as [32P]gamma-ATP incorporation into substrate at 1 uM after 15 mins by gamma counting; values are per cent of control
# Target sequence in this assay (P49841 whole entry, looked up): as above
# Aurora kinase A = target: T2, Aurora kinase A (Homo sapiens, UniProt O14965); assay: Inhibition of human AURKA activity using Ser/Thr 1 peptide as substrate by FRET assay
# T2 sequence (O14965 whole entry): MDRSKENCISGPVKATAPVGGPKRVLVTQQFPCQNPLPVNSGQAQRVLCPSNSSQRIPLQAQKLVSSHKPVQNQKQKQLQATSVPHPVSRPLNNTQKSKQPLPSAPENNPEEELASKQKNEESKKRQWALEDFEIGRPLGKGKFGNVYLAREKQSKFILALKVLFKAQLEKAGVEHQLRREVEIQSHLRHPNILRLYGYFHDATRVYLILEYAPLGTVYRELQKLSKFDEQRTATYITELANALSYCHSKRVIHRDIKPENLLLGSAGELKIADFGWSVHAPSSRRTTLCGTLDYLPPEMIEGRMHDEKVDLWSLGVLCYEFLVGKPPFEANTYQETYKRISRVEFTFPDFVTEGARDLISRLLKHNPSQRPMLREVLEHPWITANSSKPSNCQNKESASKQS
# [6] = target: T1, Glycogen synthase kinase-3 beta; assay: Inhibition of human GSK3-beta activity using Ser/Thr 9 peptide as substrate by FRET assay
# Target sequence in this assay (P49841 whole entry): as the sequence (P49841 whole entry, looked up) above
# [7] = target: Cyclin-dependent kinase 5/CDK5 activator 1 (Homo sapiens, UniProt Q00535); assay: Inhibition of human CDK5/p35 activity using Ser/Thr 12 peptide as substrate by FRET assay; type: protein-complex assay
# Danio rerio [8] = species on record: Danio rerio; assay: Toxicity in 8 to 15 -somite stage zebrafish embryo assessed as deformation in fish tail formation at 100 uM after 18 to 25 hrs; type: organism-based; details: in vivo
# [9] = target: Protein kinase C alpha type (Homo sapiens, UniProt P17252); assay: Inhibition of human PKCalpha activity using Ser/Thr 7 peptide as substrate by FRET assay
# [10] = target: Casein kinase I isoform epsilon (Homo sapiens, UniProt P49674); assay: Inhibition of human CKI epsilon activity using Ser/Thr 11 peptide as substrate by FRET assay
# Danio rerio [11] = species on record: Danio rerio; assay: Toxicity in 8 to 15 -somite stage zebrafish embryo assessed as deformation in fish tail formation at 25 uM after 18 to 25 hrs; type: organism-based; details: in vivo
# Danio rerio [12] = species on record: Danio rerio; assay: Toxicity in 8 to 15 -somite stage zebrafish embryo assessed as swimming movements in circles at 25 uM after 18 to 25 hrs; type: organism-based; details: in vivo
# Sequence of Cyclin-dependent kinase 5/CDK5 activator 1 (Q00535 whole entry): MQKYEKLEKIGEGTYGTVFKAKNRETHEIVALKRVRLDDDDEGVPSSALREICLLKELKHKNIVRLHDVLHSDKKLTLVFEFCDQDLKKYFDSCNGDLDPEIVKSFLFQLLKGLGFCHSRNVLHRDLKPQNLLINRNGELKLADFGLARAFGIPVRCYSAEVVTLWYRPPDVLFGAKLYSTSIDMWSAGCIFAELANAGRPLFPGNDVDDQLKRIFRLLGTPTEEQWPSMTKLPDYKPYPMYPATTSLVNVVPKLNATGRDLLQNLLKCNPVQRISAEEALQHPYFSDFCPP
# Sequence of Cyclin-dependent kinase 5/CDK5 activator 1 (Q15078 whole entry, further chain): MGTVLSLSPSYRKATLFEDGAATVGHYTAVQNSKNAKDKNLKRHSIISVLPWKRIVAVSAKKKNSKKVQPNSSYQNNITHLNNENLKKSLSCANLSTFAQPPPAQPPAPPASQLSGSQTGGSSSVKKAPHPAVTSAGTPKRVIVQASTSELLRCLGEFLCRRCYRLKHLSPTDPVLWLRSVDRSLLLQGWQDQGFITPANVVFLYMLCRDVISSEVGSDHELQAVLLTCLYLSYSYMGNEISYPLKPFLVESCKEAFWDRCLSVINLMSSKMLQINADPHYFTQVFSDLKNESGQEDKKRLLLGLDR
# Sequence of Casein kinase I isoform epsilon (P49674 whole entry, canonical isoform): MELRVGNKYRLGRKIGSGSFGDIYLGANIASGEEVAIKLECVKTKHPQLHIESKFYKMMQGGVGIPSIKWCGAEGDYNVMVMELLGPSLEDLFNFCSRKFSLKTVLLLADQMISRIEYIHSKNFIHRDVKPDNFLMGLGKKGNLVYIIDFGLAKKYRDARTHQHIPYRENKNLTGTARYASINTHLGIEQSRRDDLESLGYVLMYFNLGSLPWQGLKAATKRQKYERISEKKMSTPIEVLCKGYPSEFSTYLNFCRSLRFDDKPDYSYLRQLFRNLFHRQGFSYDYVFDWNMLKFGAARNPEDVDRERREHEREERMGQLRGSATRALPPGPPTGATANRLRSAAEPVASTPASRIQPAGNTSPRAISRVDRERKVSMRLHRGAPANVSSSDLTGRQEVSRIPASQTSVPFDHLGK
# Sequence of Glycogen synthase kinase-3 alpha (P49840 whole entry): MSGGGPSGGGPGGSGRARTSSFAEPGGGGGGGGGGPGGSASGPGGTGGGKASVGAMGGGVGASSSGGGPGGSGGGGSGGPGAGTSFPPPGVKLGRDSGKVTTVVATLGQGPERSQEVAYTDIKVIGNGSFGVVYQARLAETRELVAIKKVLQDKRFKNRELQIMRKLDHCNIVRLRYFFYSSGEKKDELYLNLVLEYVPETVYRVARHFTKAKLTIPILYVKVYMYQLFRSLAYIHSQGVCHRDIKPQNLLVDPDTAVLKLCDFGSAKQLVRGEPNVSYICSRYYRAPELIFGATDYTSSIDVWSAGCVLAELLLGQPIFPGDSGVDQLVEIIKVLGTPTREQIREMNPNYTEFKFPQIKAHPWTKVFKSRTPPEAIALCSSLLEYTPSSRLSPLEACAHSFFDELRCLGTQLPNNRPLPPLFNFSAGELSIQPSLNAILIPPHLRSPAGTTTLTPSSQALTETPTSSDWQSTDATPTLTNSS
Compound,IC50 [2] [µM],residual activity [4] [%],residual activity [5] [%],IC50 (Aurora kinase A) [µM],IC50 [6] [µM],IC50 [7] [µM],IC50 [9] [µM],IC50 [10] [µM],Activity (Danio rerio [1]),Activity (Danio rerio [3]),Activity (Danio rerio [8]),Activity (Danio rerio [11]),Activity (Danio rerio [12])
COc1ccc(CNC(=O)Nc2nc3ccc([N+](=O)[O-])cc3s2)cc1,0.22,,,> 100,3.64,> 100,> 100,> 100,,,,,
Nc1nc(NCCNc2ncc(-c3ncc[nH]3)c(-c3ccc(Cl)cc3Cl)n2)ccc1[N+](=O)[O-],,,,,,,,,,Non-toxic,,Toxic,Toxic
CCOC(=O)c1sc(NC(=O)NCc2ccc(F)cc2)nc1C,,,,,,,,,,Non-toxic,,,
COc1ccc(CNC(=O)Nc2cc(-c3cccnc3F)ccn2)cc1,,12,,,0.098,,,,,,,,
COc1ccc(CNC(=O)Nc2cc(-c3nnn[nH]3)ccn2)cc1,0.37,24,82,> 100,0.51,> 100,> 100,> 100,Toxic,Non-toxic,Toxic,,
COc1ccc(CNC(=O)Nc2nc3ccc(C#N)cc3s2)cc1,,24,57,,,,,,,,,,

# Now from value to compound, other results behind:
IC50 [2] [µM],residual activity [4] [%],residual activity [5] [%],IC50 (Aurora kinase A) [µM],IC50 [6] [µM],IC50 [7] [µM],IC50 [9] [µM],IC50 [10] [µM],Compound,Activity (Danio rerio [1]),Activity (Danio rerio [3]),Activity (Danio rerio [8]),Activity (Danio rerio [11]),Activity (Danio rerio [12])
0.13,18,69,4.8,0.14,26.4,24.2,15.3,COc1ccc(CNC(=O)Nc2nc3ccc(-c4nnn[nH]4)cc3s2)cc1,Toxic,Non-toxic,Toxic,,
1.12,42,101,> 100,1.43,> 100,> 100,> 100,COc1ccc(CNC(=O)Nc2cc(C#N)ccn2)cc1,,,,,
,20,55,,,,> 100,> 100,COc1ccc(CNC(=O)Nc2ncc([N+](=O)[O-])s2)cc1,,Toxic,,,
,32,91,,,,,,COc1ccc(CNC(=O)Nc2cc(-c3ccccc3OC)ccn2)cc1,,,,,
,40,79,,,,,,COc1ccc(CNC(=O)Nc2ccc(C#N)cn2)cc1,,,,,
,31,75,,,,,,COc1ccc(CNC(=O)Nc2ccc([N+](=O)[O-])cn2)cc1,,,,,
